In ChEMBL document CHEMBL3046554, “Investigating the mode of action of sulfoxaflor: a fourth-generation neonicotinoid” (Pest Manag Sci, 2013):
Converted amounts (≈) assume the structure as drawn. The source made the active and inactive calls. The calls are words filed in the database; no cut-off is given here.

Tests used:
Myzus persicae [1] = test: whole plant or invertebrate; type: functional; conditions: 4106A, in Brassica rapa, 72 h
Description: Insecticidal activity against Myzus persicae 4106A (green peach aphid) fed on compound treated chinese cabbage discs after 72 hr

Myzus persicae [2] = test: Ratio of Ki for [3H]IMD displacement to [3H]-methyl-SFX displacement from nAChR in Myzus persicae 4106A (green peach aphid) membrane; conditions: tested as the 3H-labelled form
Myzus persicae [3] = test: Binding affinity to nAChR in neonicotinoid-resistant Myzus persicae FRC-P (green peach aphid) membrane at 0.05 to 16 nM after 70 min; conditions: tested as the 3H-labelled form
Myzus persicae [4] = test: Insecticidal activity against neonicotinoid-resistant Myzus persicae FRC-P (green peach aphid) fed on compound treated chinese cabbage discs after 72 hr; type: functional; conditions: in Brassica rapa
Myzus persicae [5] = test: Displacement of [3H]-methyl-SFX from nAChR in Myzus persicae (green peach aphid) 4106A membrane at 1 ppm after 70 min

Row | Structure (SMILES) | LC50 (Myzus persicae [1]) [µg/mL] | LC50 (Myzus persicae [4]) [µg/mL] | other results
1 | C=CCC(F)(F)c1ccc(C(C)S(C)(=O)=NC#N)cn1 (stereo unspecified) | > 100 |  | 
2 | CC(C)(c1ccc(C(F)(F)F)nc1)S(C)(=O)=NC#N (stereo unspecified) | 0.45 (≈ 1.54 µM) |  | Ratio Ki (Myzus persicae [2]): 100; Activity (Myzus persicae [3]): inactive
3 | CN/C(=N\[N+](=O)[O-])NCc1cnc(Cl)s1 [CLOTHIANIDINE] | 0.3 (≈ 1.2 µM) | 904 (≈ 3620 µM) | 
4 | CCN(Cc1ccc(Cl)nc1)/C(=C/[N+](=O)[O-])NC [NITENPYRAM] | 1.3 (≈ 4.8 µM) | 236 (≈ 872 µM) | 
5 | CC1(C)[C@H](/C=C(\Cl)C(F)(F)F)[C@@H]1C(=O)O[C@@H](C#N)c1cccc(Oc2ccccc2)c1 (relative stereo) |  |  | Activity (Myzus persicae [5]): 3%
6 | CNC(=O)c1cc(Cl)cc(C)c1NC(=O)c1cc(Br)nn1-c1ncccc1Cl |  |  | Activity (Myzus persicae [5]): 8%
7 | O=[N+]([O-])/N=C1\NCCN1Cc1ccc(Cl)nc1 [IMIDACLOPRID] | 0.1 (≈ 0.391 µM) | 108 (≈ 422 µM) | 
8 | CC[C@H](C)[C@H]1O[C@]2(C=C[C@@H]1C)C[C@@H]1C[C@@H](C/C=C(\C)[C@@H](O[C@H]3C[C@H](OC)[C@@H](O[C@H]4C[C@H](OC)[C@@H](O)[C@H](C)O4)[C@H](C)O3)[C@@H](C)/C=C/C=C3\CO[C@@H]4[C@H](O)C(C)=C[C@@H](C(=O)O1)[C@]34O)O2.CO[C@H]1C[C@H](O[C@H]2[C@H](C)O[C@@H](O[C@@H]3/C(C)=C/C[C@@H]4C[C@@H](C[C@]5(C=C[C@H](C)[C@@H](C(C)C)O5)O4)OC(=O)[C@@H]4C=C(C)[C@@H](O)[C@H]5OC/C(=C\C=C\[C@@H]3C)[C@]54O)C[C@@H]2OC)O[C@@H](C)[C@@H]1O |  |  | Activity (Myzus persicae [5]): -6%
9 | C/C(=N\C#N)N(C)Cc1ccc(Cl)nc1 [ACETAMIPRID] | 0.6 (≈ 2.69 µM) | 49.3 (≈ 221 µM) | 
10 | CN1COCN(Cc2cnc(Cl)s2)/C1=N\[N+](=O)[O-] [THIAMETHOXAM] | 0.5 (≈ 1.71 µM) | 108 (≈ 370 µM) | 
11 | CC(c1ccc(C(F)(F)F)nc1)S(C)(=O)=NC#N (stereo unspecified) [SULFOXAFLOR] | 0.08 (≈ 0.289 µM) | 4.3 (≈ 15.5 µM) | 
12 | CC(c1ccc(C(F)(F)F)nc1)S(C)(=O)=N[N+](=O)[O-] (stereo unspecified) | > 100 |  | 
13 | CN/C(=N/CC1CCOC1)N[N+](=O)[O-] (stereo unspecified) [DINOTEFURAN] | 10 (≈ 49.5 µM) | 538 (≈ 2660 µM) | 
14 | Cc1nc(C(F)(F)F)ccc1CS(C)(=O)=NC#N (stereo unspecified) | > 100 |  | 
15 | CC(c1ccc(Cl)nc1)S(C)(=O)=NC#N (stereo unspecified) | 1.4 (≈ 5.74 µM) |  | 
16 | CCN(CC)c1nc(C)cc(OP(=S)(OC)OC)n1 |  |  | Activity (Myzus persicae [5]): 2%
17 | N#Cc1nn(-c2c(Cl)cc(C(F)(F)F)cc2Cl)c(N)c1[S+]([O-])C(F)(F)F (stereo unspecified) |  |  | Activity (Myzus persicae [5]): 30%
18 | CS(=O)(Cc1ccc(C(F)(F)Cl)nc1)=NC#N (stereo unspecified) | 9.6 (≈ 34.3 µM) |  | 
19 | CCC(C)c1cc([N+](=O)[O-])cc([N+](=O)[O-])c1O (stereo unspecified) |  |  | Activity (Myzus persicae [5]): 13%
20 | CON=CCCC(F)(F)c1ccc(C(C)S(C)(=O)=NC#N)cn1 (stereo unspecified) | > 100 |  | 
21 | CCS(=O)(=NC#N)C(C)(C)c1ccc(C(F)(F)F)nc1 (stereo unspecified) | 20.5 (≈ 67.1 µM) |  | 
22 | CC(c1ccc(C(F)(F)F)nc1)S(C)(=O)=NC(N)=O (stereo unspecified) | > 100 |  | 
23 | CNC(=O)O/N=C/C(C)(C)SC |  |  | Activity (Myzus persicae [5]): 0%
24 | C[C@@](F)(c1ccc(C(F)(F)F)nc1)S(C)(=O)=NC#N (stereo partly specified) | 4.64 (≈ 15.7 µM) |  | 
25 | CS(=O)(Cc1cnc(Cl)s1)=NC#N (stereo unspecified) | 14.4 (≈ 61.2 µM) |  | 
26 | N#C/N=C1\SCCN1Cc1ccc(Cl)nc1 [THIACLOPRID] | 0.4 (≈ 1.58 µM) | > 1000 | 
